# Reference: patent US8426559B2, “Injectable β-hairpin peptide hydrogel that kills methicillin-resistant Staphylococcus aureus” (University of Delaware, priority 2009, dated 2013)
# Non-standard residues stand in square brackets, D forms with d. Residues, ends and D or L forms follow the SMILES beside them.
# Assays:
# [1] = test system: C3H10t1/2 mesenchymal stem cells; test: Cytotoxicity of hydrogel towards mammalian cells, live/dead viability assay; type: cell-based, murine
# Experimental: The confocal images show live/dead viability assays performed using murine C3H10t1/2 mesenchymal stem cells that had been cultured for 24 h on (A) a 2 wt % MARG1 hydrogel surface and on (B) a TCTP control surface. This cell line was chosen because these cells are sensitive to their environment and thus good indicators of a material's cytotoxic properties.
# The images in FIGS. 5A,B are rendered in black and white, where the light areas represent cells that fluoresce green (live cells) and dark areas represent cells that fluoresce red (dead cells).
# C3H10t1/2 mesenchymal stem cells (ATCC # CCL-226) were cultured using Dulbecco's Modified Eagle's Medium (DMEM, Sigma Aldrich, D6546) supplemented with 10% Fetal Bovine Serum, 5 mM L-Glutamine, 50 μg/mL Gentamicin at 37° C. in 5% CO2. Cells were cultured in T75 cell culture flasks. Cells were kept in culture for seven passages and used for cellular viability on passage number 7. For cell plating, cells were trypsinized and counted using a hemacytometer. The resultant cell suspension was introduced to the hydrogel and control surfaces such that a cell loading density of 30,000 cells/cm^2 was achieved. These samples were incubated for 24 hours at 37° C., 5% CO2. […]
# [2] = test system: MSSA (methicillin-susceptible Staphylococcus aureus, ATCC 25923); test: Antibacterial assay: bacteria introduced onto hydrogel-coated TCTP surface, proliferation by OD625nm; type: cell-based; conditions: 2 wt % hydrogel on TCTP, all bacterial cell loading densities, 24 h, compared to uncoated surface
# Experimental: (§1) The antibacterial activity of MARG1 hydrogels was assessed via two distinct assays. In the first assay, bacteria were introduced to the surface of tissue culture treated polystyrene (TCTP) coated with a ˜1-2 mm layer of the gel and its ability to inhibit bacterial proliferation was assessed. This assay measures the ability of MARG1 gels to thwart new infection at a particular site. Here, gels were formed directly on the polystyrene surface without the aid of shear-thin delivery. In the second assay, MARG1 gels were shear-thin delivered via syringe to agar surfaces infected with bacteria, and the ability of the gel to kill bacteria on contact was measured. This assay simulates the introduction of the MARG1 gel via syringe to a bacterial contaminated surface, such as a wound.
# Hydrogels for the antibacterial assays were prepared in separate wells of 96-well tissue culture-treated polystyrene plates (Costar 3595). […]
# (§2) For each assay, 100 μL of bacteria-free TSB was introduced onto the surface of the hydrogels. […] After this, bacterial growth was monitored by measuring OD625nm of the liquid above the gel by adding 100 μL of bacteria-free TSB to the surfaces, gently mixing and transferring the supernatant to a cuvette. Corrected OD625nm values were calculated to correct for dilution and to normalize for scattering that occurs for each individual bacterial strain. […]
# [3] = test system: MRSA (methicillin-resistant Staphylococcus aureus, ATCC 33591); test: as above; type: cell-based; conditions: 2 wt % hydrogel on TCTP, 24 hr at 37° C.
# Experimental: as §1, with “This assay simulates the introduction of the MARG1 gel via syringe to a bacterial contaminated surface, such as a wound.” left out
# The gels were incubated for 24 hr at 37° C., and bacterial proliferation was quantitated by light scattering as described in Salick, D. A.; Kretsinger, J. K.; Pochan, D. J.; Schneider, J. P. J. Am. […]
# as §2
Molecule,Cytotoxicity towards mammalian cells ([1]; C3H10t1/2 cells cultured 24 h on 2 wt % hydrogel surface),"Viability of cells cultured on hydrogel surface versus TCTP control ([1]; C3H10t1/2 cells, 24 h, 2 wt % hydrogel surface)",MSSA proliferation on hydrogel-coated surface (OD) [2],MRSA proliferation on hydrogel-coated surface (OD) ([3]; challenged with 2×10^8 CFU/dm^2 MRSA),MRSA proliferation on hydrogel-coated surface (OD) ([3]; lower CFUs of MRSA)
"CC(C)[C@H](N)C(=O)N[C@@H](CCCCN)C(=O)N[C@H](C(=O)N[C@@H](CCCCN)C(=O)N[C@H](C(=O)N[C@@H](CCCNC(=N)N)C(=O)N[C@H](C(=O)N[C@@H](CCCCN)C(=O)N[C@H](C(=O)N1CCC[C@@H]1C(=O)N1CCC[C@H]1C(=O)N[C@H](C(=O)N[C@@H](CCCCN)C(=O)N[C@H](C(=O)N[C@@H](CCCCN)C(=O)N[C@H](C(=O)N[C@@H](CCCNC(=N)N)C(=O)N[C@H](C(=O)N[C@@H](CCCCN)C(=O)N[C@H](C(N)=O)C(C)C)C(C)C)C(C)C)C(C)C)[C@@H](C)O)C(C)C)C(C)C)C(C)C)C(C)C [MARG1, VKVKVRVKV^DPPTKVKVRVKV-NH2] (H-VKVKVRVKV[dP]PTKVKVRVKV-NH2)",non-cytotoxic,no significant difference,,,
VKVKVKVKV^DPPTKVKVKVKV-NH2 [MAX1],,,can inhibit bacterial proliferation,uninhibited MRSA proliferation,inhibiting MRSA at lower CFUs
